Results: ChEMBL document CHEMBL5727547, “Sodium channel modulators” (2020)

Assays:
[1] = (§1) Automated patch clamp (Inactivation State Block): Test Protocol for Determining the Potency of Compounds on Nav1.2 and Nav1.6 Subtypes of Voltage-Gated Sodium Ion Channels Expressed in Mammalian CellsCell culture procedures: Chinese hamster ovary (CHO) cells were stably transfected with the cDNA sequence of either the human SCN2A or SCN8A genes to create hNav1.2 or hNav1.6 cells respectively. The cell lines were cultured in Ham's F-12 medium supplemented with 10% fetal bovine serum and antibiotics in a tissue incubator at 37° C. under a humidified air/CO2 mixture (95/5 v/v). On the day of the experiment, cells were washed twice with Hank's balanced salt solution, treated with trypsin, and resuspended in fresh culture media at a density of 4−6×10^6 cells in 20 ml. Immediately before placing in the IonWorks Quattro instrument, cells were washed in Hank's balanced salt solution to remove culture medium and re-suspended in 3 ml of Hank's balanced salt solution. Automated patch clamp recordings of cells using the IonWorks Quattro Instrument: The assay used a 384 microwell plate, which enabled 20 compounds to be studied at four different concentrations in quadruplicate as well as allowing a vehicle control group and a positive control group using mexiletine at 8 different concentrations. Cells were added to the wells of the Population Patch Clamp planar electrode using a 48-channel pipettor in a volume of 6 μL, per well. After 5 minutes incubation at ambient temperature with compounds or vehicle, membrane currents were recorded using the patch clamp amplifier. The pulse pattern was repeated twice, before and after compound addition and peak current amplitudes were measured at TP12 to measure Inactivation State Block. Data analysis: Data acquisition and analyses were carried out using the IonWorks Quattro system operation software which uses an algorithm to correct data for leak currents. Concentration-response curves were fitted by non-linear least squares regression allowing calculation of an IC50 value (μM), being the concentration of the compound producing half-maximal inhibition.
[2] = as §1, with “(Tonic” for “(Inactivation State”, “TP11” for “TP12”, “10 Hz Frequency-dependent” for “Inactivation State”
[3] = Automated patch clamp (Tonic Block): Test Protocol for Determining the Potency of Compounds on Nav1.2 and Nav1.6 Subtypes of Voltage-Gated Sodium Ion Channels Expressed in Mammalian CellsCell culture procedures: Chinese hamster ovary (CHO) cells were stably transfected with the cDNA sequence of either the human SCN2A or SCN8A genes to create hNav1.2 or hNav1.6 cells respectively. The cell lines were cultured in Ham's F-12 medium supplemented with 10% fetal bovine serum and antibiotics in a tissue incubator at 37° C. under a humidified air/CO2 mixture (95/5 v/v). On the day of the experiment, cells were washed twice with Hank's balanced salt solution, treated with trypsin, and resuspended in fresh culture media at a density of 4−6×10^6 cells in 20 ml. Immediately before placing in the IonWorks Quattro instrument, cells were washed in Hank's balanced salt solution to remove culture medium and re-suspended in 3 ml of Hank's balanced salt solution. Automated patch clamp recordings of cells using the IonWorks Quattro Instrument: The assay used a 384 microwell plate, which enabled 20 compounds to be studied at four different concentrations in quadruplicate as well as allowing a vehicle control group and a positive control group using mexiletine at 8 different concentrations. […]

IC50 [1] [µM] | IC50 [2] [µM] | IC50 [3] [µM] | Compound
> 10 | > 10 | – | Cc1nn(C)c(C)c1OCCCNC(c1ccccn1)c1ccccn1
2 | 2 | – | Cc1cccc(C)c1OCCCNCc1cccc(C#N)c1
> 10 | > 10 | > 10 | Cc1cccc(C)c1OCCCNCc1cccc(C(F)(F)F)c1
0.1 | – | – | Cc1cccc(C)c1OCCCNC(c1ccccn1)c1ccccn1
> 1000 | > 1000 | – | Cc1cccc(C)c1OCCCNCc1ccc(-c2ccccc2)cc1
> 10 | > 10 | – | Cc1cccc(C)c1OCCCNCc1cc(C(C)(C)C)cc(C(C)(C)C)c1
> 10 | > 10 | – | Cc1n[nH]c(C)c1OCCCNC(c1ccccn1)c1ccccn1
> 10 | > 10 | – | Cc1nn(C)c(C)c1OCCCNCc1cccc(-c2cncnc2)c1
> 10 | > 10 | – | Cc1n[nH]c(C)c1OCCCNCc1cccc(-c2cncnc2)c1
